{"source": "ChEMBL document CHEMBL1201862", "about": "“PubChem BioAssay data set” (2004)", "test_in_all_cases": "inhibition of tumour cell growth, NCI panel, 48 h", "key": {"[1]": {"tested_on": "NCI-H460"}, "[2]": {"tested_on": "OVCAR-3"}, "[3]": {"tested_on": "SNB-19"}, "[4]": {"tested_on": "TK-10"}, "[5]": {"tested_on": "RPMI-8226"}, "[6]": {"tested_on": "HL-60"}, "[7]": {"tested_on": "HT-29"}, "[8]": {"tested_on": "COLO 205"}, "[9]": {"tested_on": "M14"}, "[10]": {"tested_on": "HCC 2998"}, "[11]": {"tested_on": "SW-620"}, "[12]": {"tested_on": "SK-MEL-28"}, "[13]": {"tested_on": "T47D"}, "[14]": {"tested_on": "BT-549"}, "[15]": {"tested_on": "UACC-257"}, "[16]": {"tested_on": "SF-539"}, "[17]": {"tested_on": "LOX IMVI"}, "[18]": {"tested_on": "HOP-62"}, "[19]": {"tested_on": "U-251"}, "[20]": {"tested_on": "A498"}, "[21]": {"tested_on": "SF-268"}, "[22]": {"tested_on": "DU-145"}, "[23]": {"tested_on": "NCI-H522"}, "[24]": {"tested_on": "Hs-578T"}, "[25]": {"tested_on": "MDA-MB-435"}, "[26]": {"tested_on": "NCI/ADR-RES"}, "[27]": {"tested_on": "HOP-92"}, "[28]": {"tested_on": "UO-31"}, "[29]": {"tested_on": "MDA-MB-231"}, "[30]": {"tested_on": "CCRF-CEM"}, "[31]": {"tested_on": "PC-3"}, "[32]": {"tested_on": "SK-OV-3"}, "[33]": {"tested_on": "MOLT-4"}, "[34]": {"tested_on": "SNB-75"}, "[35]": {"tested_on": "CAKI-1"}, "[36]": {"tested_on": "IGROV-1"}, "[37]": {"tested_on": "OVCAR-8"}, "[38]": {"tested_on": "KM12"}, "[39]": {"tested_on": "A549"}, "[40]": {"tested_on": "SK-MEL-5"}, "[41]": {"tested_on": "NCI-H226"}, "[42]": {"tested_on": "OVCAR-5"}, "[43]": {"tested_on": "MCF7"}, "[44]": {"tested_on": "SK-MEL-2"}, "[45]": {"tested_on": "786-0"}, "[46]": {"tested_on": "HCT-15"}, "[47]": {"tested_on": "RXF 393"}, "[48]": {"tested_on": "K562"}, "[49]": {"tested_on": "OVCAR-4"}, "[50]": {"tested_on": "SF-295"}, "[51]": {"tested_on": "EKVX"}, "[52]": {"tested_on": "UACC-62"}, "[53]": {"tested_on": "SR"}, "[54]": {"tested_on": "HCT-116"}, "[55]": {"tested_on": "ACHN"}, "[56]": {"tested_on": "SN12C"}, "[57]": {"tested_on": "NCI-H23"}}, "note": "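All cell lines were grown in 96-well plates and treated with compound for 48 hours. GI50 = concentration required for 50% inhibition of growth.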 The source made the active and inactive calls. Cut-off read from the data, not from the text of the source: active = GI50 up to about 1.1 µM and inactive = higher."}
{"smiles": "CC(=O)OC(Cn1cncn1)(Cn1cncn1)c1ccc(Cl)cc1Cl", "values": [{"measurement": "GI50", "setting": "[1]", "value": "> 100 µM (inactive)"}, {"measurement": "GI50", "setting": "[2]", "value": "> 100 µM (inactive)"}, {"measurement": "GI50", "setting": "[3]", "value": "> 100 µM (inactive)"}, {"measurement": "GI50", "setting": "[4]", "value": "> 100 µM (inactive)"}, {"measurement": "GI50", "setting": "[5]", "value": "> 100 µM (inactive)"}, {"measurement": "GI50", "setting": "[6]", "value": "> 100 µM (inactive)"}, {"measurement": "GI50", "setting": "[7]", "value": "> 100 µM (inactive)"}, {"measurement": "GI50", "setting": "[8]", "value": "> 100 µM (inactive)"}, {"measurement": "GI50", "setting": "[9]", "value": "> 100 µM (inactive)"}, {"measurement": "GI50", "setting": "[10]", "value": "> 100 µM (inactive)"}, {"measurement": "GI50", "setting": "[11]", "value": "> 100 µM (inactive)"}, {"measurement": "GI50", "setting": "[12]", "value": "> 100 µM (inactive)"}, {"measurement": "GI50", "setting": "[13]", "value": "> 100 µM (inactive)"}, {"measurement": "GI50", "setting": "[14]", "value": "> 100 µM (inactive)"}, {"measurement": "GI50", "setting": "[15]", "value": "> 100 µM (inactive)"}, {"measurement": "GI50", "setting": "[16]", "value": "> 100 µM (inactive)"}, {"measurement": "GI50", "setting": "[17]", "value": "> 100 µM (inactive)"}, {"measurement": "GI50", "setting": "[18]", "value": "> 100 µM (inactive)"}, {"measurement": "GI50", "setting": "[19]", "value": "> 100 µM (inactive)"}, {"measurement": "GI50", "setting": "[20]", "value": "> 100 µM (inactive)"}, {"measurement": "GI50", "setting": "[21]", "value": "> 100 µM (inactive)"}, {"measurement": "GI50", "setting": "[22]", "value": "> 100 µM (inactive)"}, {"measurement": "GI50", "setting": "[23]", "value": "> 100 µM (inactive)"}, {"measurement": "GI50", "setting": "[24]", "value": "> 100 µM (inactive)"}, {"measurement": "GI50", "setting": "[25]", "value": "> 100 µM (inactive)"}, {"measurement": "GI50", "setting": "[26]", "value": "> 100 µM (inactive)"}, {"measurement": "GI50", "setting": "[27]", "value": "> 100 µM (inactive)"}, {"measurement": "GI50", "setting": "[28]", "value": "> 100 µM (inactive)"}, {"measurement": "GI50", "setting": "[29]", "value": "> 100 µM (inactive)"}, {"measurement": "GI50", "setting": "[30]", "value": "> 100 µM (inactive)"}, {"measurement": "GI50", "setting": "[31]", "value": "> 100 µM (inactive)"}, {"measurement": "GI50", "setting": "[32]", "value": "> 100 µM (inactive)"}, {"measurement": "GI50", "setting": "[33]", "value": "> 100 µM (inactive)"}, {"measurement": "GI50", "setting": "[34]", "value": "> 100 µM (inactive)"}, {"measurement": "GI50", "setting": "[35]", "value": "> 100 µM (inactive)"}, {"measurement": "GI50", "setting": "[36]", "value": "> 100 µM (inactive)"}, {"measurement": "GI50", "setting": "[37]", "value": "> 100 µM (inactive)"}, {"measurement": "GI50", "setting": "[38]", "value": "> 100 µM (inactive)"}, {"measurement": "GI50", "setting": "[39]", "value": "> 100 µM (inactive)"}, {"measurement": "GI50", "setting": "[40]", "value": "> 100 µM (inactive)"}, {"measurement": "GI50", "setting": "[41]", "value": "> 100 µM (inactive)"}, {"measurement": "GI50", "setting": "[42]", "value": "> 100 µM (inactive)"}, {"measurement": "GI50", "setting": "[43]", "value": "> 100 µM (inactive)"}, {"measurement": "GI50", "setting": "[44]", "value": "> 100 µM (inactive)"}, {"measurement": "GI50", "setting": "[45]", "value": "> 100 µM (inactive)"}, {"measurement": "GI50", "setting": "[46]", "value": "> 100", "unit": "µM"}, {"measurement": "GI50", "setting": "[47]", "value": "> 100 µM (inactive)"}, {"measurement": "GI50", "setting": "[48]", "value": "> 100 µM (inactive)"}, {"measurement": "GI50", "setting": "[49]", "value": "> 100 µM (inactive)"}, {"measurement": "GI50", "setting": "[50]", "value": "> 100 µM (inactive)"}, {"measurement": "GI50", "setting": "[51]", "value": "> 100 µM (inactive)"}]}
{"smiles": "Oc1ccc2c(c1)-c1c(c3cc(O)ccc3n1CCN1CCOCC1)CC2", "values": [{"measurement": "GI50", "setting": "[2]", "value": "20.7 µM (inactive)"}, {"measurement": "GI50", "setting": "[3]", "value": "29 µM (inactive)"}, {"measurement": "GI50", "setting": "[52]", "value": "16.7 µM (inactive)"}, {"measurement": "GI50", "setting": "[4]", "value": "41.1 µM (inactive)"}, {"measurement": "GI50", "setting": "[5]", "value": "24.7 µM (inactive)"}, {"measurement": "GI50", "setting": "[6]", "value": "23.2 µM (inactive)"}, {"measurement": "GI50", "setting": "[7]", "value": "26 µM (inactive)"}, {"measurement": "GI50", "setting": "[8]", "value": "17.4 µM (inactive)"}, {"measurement": "GI50", "setting": "[9]", "value": "19.5 µM (inactive)"}, {"measurement": "GI50", "setting": "[10]", "value": "16.9 µM (inactive)"}, {"measurement": "GI50", "setting": "[11]", "value": "23 µM (inactive)"}, {"measurement": "GI50", "setting": "[12]", "value": "18.5 µM (inactive)"}, {"measurement": "GI50", "setting": "[13]", "value": "18.8 µM (inactive)"}, {"measurement": "GI50", "setting": "[14]", "value": "14.5 µM (inactive)"}, {"measurement": "GI50", "setting": "[15]", "value": "36.6 µM (inactive)"}, {"measurement": "GI50", "setting": "[16]", "value": "22.6 µM (inactive)"}, {"measurement": "GI50", "setting": "[17]", "value": "17.6 µM (inactive)"}, {"measurement": "GI50", "setting": "[18]", "value": "19.5 µM (inactive)"}, {"measurement": "GI50", "setting": "[19]", "value": "19.7 µM (inactive)"}, {"measurement": "GI50", "setting": "[20]", "value": "21 µM (inactive)"}, {"measurement": "GI50", "setting": "[21]", "value": "44.8 µM (inactive)"}, {"measurement": "GI50", "setting": "[53]", "value": "18.4 µM (inactive)"}, {"measurement": "GI50", "setting": "[22]", "value": "28.4 µM (inactive)"}, {"measurement": "GI50", "setting": "[23]", "value": "17.4 µM (inactive)"}, {"measurement": "GI50", "setting": "[24]", "value": "27 µM (inactive)"}, {"measurement": "GI50", "setting": "[25]", "value": "17.8 µM (inactive)"}, {"measurement": "GI50", "setting": "[26]", "value": "24.8 µM (inactive)"}, {"measurement": "GI50", "setting": "[27]", "value": "26.1 µM (inactive)"}, {"measurement": "GI50", "setting": "[28]", "value": "17.5 µM (inactive)"}, {"measurement": "GI50", "setting": "[29]", "value": "17.6 µM (inactive)"}, {"measurement": "GI50", "setting": "[54]", "value": "19.1 µM (inactive)"}, {"measurement": "GI50", "setting": "[30]", "value": "22.8 µM (inactive)"}, {"measurement": "GI50", "setting": "[31]", "value": "18.4 µM (inactive)"}, {"measurement": "GI50", "setting": "[32]", "value": "23.9 µM (inactive)"}, {"measurement": "GI50", "setting": "[33]", "value": "19.6 µM (inactive)"}, {"measurement": "GI50", "setting": "[34]", "value": "19.5 µM (inactive)"}, {"measurement": "GI50", "setting": "[55]", "value": "30.5 µM (inactive)"}, {"measurement": "GI50", "setting": "[35]", "value": "24.9 µM (inactive)"}, {"measurement": "GI50", "setting": "[36]", "value": "24.2 µM (inactive)"}, {"measurement": "GI50", "setting": "[37]", "value": "30.4 µM (inactive)"}, {"measurement": "GI50", "setting": "[38]", "value": "32.7 µM (inactive)"}, {"measurement": "GI50", "setting": "[56]", "value": "35.3 µM (inactive)"}, {"measurement": "GI50", "setting": "[39]", "value": "28.4 µM (inactive)"}, {"measurement": "GI50", "setting": "[40]", "value": "16.6 µM (inactive)"}, {"measurement": "GI50", "setting": "[41]", "value": "18.5 µM (inactive)"}, {"measurement": "GI50", "setting": "[42]", "value": "34.8 µM (inactive)"}, {"measurement": "GI50", "setting": "[43]", "value": "18.7 µM (inactive)"}, {"measurement": "GI50", "setting": "[44]", "value": "17.6 µM (inactive)"}, {"measurement": "GI50", "setting": "[57]", "value": "25.3 µM (inactive)"}, {"measurement": "GI50", "setting": "[45]", "value": "21.9 µM (inactive)"}, {"measurement": "GI50", "setting": "[46]", "value": 19.2, "unit": "µM"}, {"measurement": "GI50", "setting": "[47]", "value": "19.7 µM (inactive)"}, {"measurement": "GI50", "setting": "[48]", "value": "20 µM (inactive)"}, {"measurement": "GI50", "setting": "[49]", "value": "25.4 µM (inactive)"}, {"measurement": "GI50", "setting": "[50]", "value": "20.1 µM (inactive)"}, {"measurement": "GI50", "setting": "[51]", "value": "30.8 µM (inactive)"}]}
